Experimental data from ChEMBL document CHEMBL5500384, “New synergistic benzoquinone scaffolds as inhibitors of mycobacterial cytochrome bc1 complex to treat multi-drug resistant tuberculosis” (Eur J Med Chem, 2024).
Converted amounts (≈) assume the structure as drawn.

Tests used:
Type in all cases: functional
[1] = system: Mycobacterium tuberculosis; assay: Potentiation of rifampicin antitubercular activity against multidrug resistant Mycobacterium tuberculosis RF21250 assessed as decrease in rifampicin MIC99.9 at 0.39 ug/ml by broth dilution method (reference value: 128 ug/ml); conditions: dose 0.39 µg/ml
[2] = system: Mycobacterium tuberculosis; assay: Antitubercular activity against multidrug resistant Mycobacterium tuberculosis RF21250 incubated for 5 days by microtiter plate method; conditions: time 5 day; for MIC: Mycobacterium tuberculosis, RF21250, 120 h
[3] = system: Mycobacterium tuberculosis; assay: Potentiation of isoniazid antitubercular activity against multidrug resistant Mycobacterium tuberculosis BLG3381 assessed as decrease in isoniazid MIC99.9 at 0.39 ug/ml by broth dilution method (reference value: 12.8 ug/ml); conditions: dose 0.39 µg/ml
[4] = system: Mycobacterium tuberculosis; assay: Potentiation of rifampicin antitubercular activity against multidrug resistant Mycobacterium tuberculosis RF21212 assessed as decrease in rifampicin MIC99.9 at 3.125 ug/ml by broth dilution method (reference value: 128 ug/ml); conditions: dose 3.125 µg/ml
[5] = system: Mycobacterium tuberculosis; assay: Antitubercular activity against multidrug resistant Mycobacterium tuberculosis RF21212 incubated for 5 days by microtiter plate method; conditions: time 5 day; for MIC: Mycobacterium tuberculosis, RF21212, 120 h
[6] = system: Mycobacterium tuberculosis; assay: Potentiation of isoniazid antitubercular activity against multidrug resistant Mycobacterium tuberculosis RF21212 assessed as decrease in isoniazid MIC99.9 at 3.125 ug/ml by broth dilution method (reference value: 12.8 ug/ml); conditions: dose 3.125 µg/ml
[7] = system: Mycobacterium tuberculosis; assay: Antitubercular activity against multidrug resistant Mycobacterium tuberculosis BLG3381 incubated for 5 days by microtiter plate method; conditions: BLG3381, 120 h, time 5 day
[8] = system: Mycobacterium tuberculosis; assay: Potentiation of isoniazid antitubercular activity against multidrug resistant Mycobacterium tuberculosis RF21250 assessed as decrease in isoniazid MIC99.9 at 0.39 ug/ml by broth dilution method (reference value: 3.2 ug/ml); conditions: dose 0.39 µg/ml
[9] = system: Mycobacterium tuberculosis; assay: Potentiation of rifampicin antitubercular activity against multidrug resistant Mycobacterium tuberculosis BLG3381 assessed as decrease in rifampicin MIC99.9 at 0.39 ug/ml by broth dilution method (reference value: 64 ug/ml); conditions: dose 0.39 µg/ml
[10] = system: Mycobacterium tuberculosis; assay: Potentiation of isoniazid antitubercular activity against multidrug resistant Mycobacterium tuberculosis BLG3381 assessed as decrease in isoniazid MIC99.9 at 3.125 ug/ml by broth dilution method (reference value: 12.8 ug/ml); conditions: dose 3.125 µg/ml
[11] = system: Mycobacterium tuberculosis; assay: Potentiation of isoniazid antitubercular activity against multidrug resistant Mycobacterium tuberculosis RF21250 assessed as decrease in isoniazid MIC99.9 at 0.78 ug/ml by broth dilution method (reference value: 3.2 ug/ml); conditions: dose 0.78 µg/ml
[12] = system: Mycobacterium tuberculosis; assay: Potentiation of isoniazid antitubercular activity against multidrug resistant Mycobacterium tuberculosis RF21212 assessed as decrease in isoniazid MIC99.9 at 1.56 ug/ml by broth dilution method (reference value: 12.8 ug/ml); conditions: dose 1.56 µg/ml
[13] = system: Mycobacterium tuberculosis; assay: Potentiation of rifampicin antitubercular activity against multidrug resistant Mycobacterium tuberculosis RF21212 assessed as decrease in rifampicin MIC99.9 at 0.78 ug/ml by broth dilution method (reference value: 128 ug/ml); conditions: dose 0.78 µg/ml
[14] = system: Mycobacterium tuberculosis; assay: Potentiation of rifampicin antitubercular activity against multidrug resistant Mycobacterium tuberculosis BLG3381 assessed as decrease in rifampicin MIC99.9 at 3.125 ug/ml by broth dilution method (reference value: 64 ug/ml); conditions: dose 3.125 µg/ml
[15] = system: Mycobacterium tuberculosis; assay: Potentiation of rifampicin antitubercular activity against multidrug resistant Mycobacterium tuberculosis RF21250 assessed as decrease in rifampicin MIC99.9 at 0.78 ug/ml by broth dilution method (reference value: 128 ug/ml); conditions: dose 0.78 µg/ml
[16] = system: Mycobacterium tuberculosis; assay: Potentiation of rifampicin antitubercular activity against multidrug resistant Mycobacterium tuberculosis RF21212 assessed as decrease in rifampicin MIC99.9 at 1.56 ug/ml by broth dilution method (reference value: 128 ug/ml); conditions: dose 1.56 µg/ml
[17] = system: Mycobacterium tuberculosis; assay: Potentiation of isoniazid antitubercular activity against multidrug resistant Mycobacterium tuberculosis RF21250 assessed as decrease in isoniazid MIC99.9 at 1.56 ug/ml by broth dilution method (reference value: 3.2 ug/ml); conditions: dose 1.56 µg/ml
[18] = system: Mycobacterium tuberculosis; assay: Potentiation of isoniazid antitubercular activity against multidrug resistant Mycobacterium tuberculosis RF21212 assessed as decrease in isoniazid MIC99.9 at 0.78 ug/ml by broth dilution method (reference value: 12.8 ug/ml); conditions: dose 0.78 µg/ml
[19] = system: Mycobacterium tuberculosis; assay: Potentiation of rifampicin antitubercular activity against multidrug resistant Mycobacterium tuberculosis BLG3381 assessed as decrease in rifampicin MIC99.9 at 6.25 ug/ml by broth dilution method (reference value: 64 ug/ml); conditions: dose 6.25 µg/ml
[20] = system: Mycobacterium tuberculosis; assay: Potentiation of isoniazid antitubercular activity against multidrug resistant Mycobacterium tuberculosis BLG3381 assessed as decrease in isoniazid MIC99.9 at 6.25 ug/ml by broth dilution method (reference value: 12.8 ug/ml); conditions: dose 6.25 µg/ml
[21] = system: Mycobacterium tuberculosis; assay: Potentiation of rifampicin antitubercular activity against multidrug resistant Mycobacterium tuberculosis RF21250 assessed as decrease in rifampicin MIC99.9 at 3.125 ug/ml by broth dilution method (reference value: 128 ug/ml); conditions: dose 3.125 µg/ml
[22] = system: Mycobacterium tuberculosis; assay: Potentiation of isoniazid antitubercular activity against multidrug resistant Mycobacterium tuberculosis RF21250 assessed as decrease in isoniazid MIC99.9 at 3.125 ug/ml by broth dilution method (reference value: 3.2 ug/ml); conditions: dose 3.125 µg/ml

Structure (SMILES)	MIC99.9 [2]	MIC99.9 [4]	MIC99.9 [5]	MIC99.9 [6]	MIC [7]	MIC99.9 [10]	MIC99.9 [11]	MIC [5]	MIC99.9 [12]	MIC99.9 [14]	MIC99.9 [15]	MIC99.9 [16]	MIC [2]	further results
NC1=C(Cl)C(=O)c2ccccc2C1=O	3.125 µg/mL (≈ 15.1 µM)	4 µg/mL	6.25 µg/mL (≈ 30.1 µM)	1.6 µg/mL	15.1 µM	–	–	–	–	–	–	–	–	MIC99.9 [1]: 0.125 µg/mL; MIC99.9 [3]: 0.8 µg/mL; MIC99.9 [8]: 0.2 µg/mL; MIC99.9 [9]: 0.007 µg/mL
CCOc1cc(C2C(Cl)C(=O)N2C2=C(Cl)C(=O)c3ccccc3C2=O)ccc1O (stereo not given)	3.125 µg/mL (≈ 7.23 µM)	–	–	–	28.9 µM	0.05 µg/mL	0.2 µg/mL	7.23 µM (≈ 3.13 µg/mL)	0.4 µg/mL	0.5 µg/mL	1 µg/mL	–	–	MIC99.9 [13]: 0.5 µg/mL
O=C1C(Cl)=C(N2C(=O)C(Cl)C2c2ccc([N+](=O)[O-])cc2)C(=O)c2ccccc21 (stereo not given)	3.125 µg/mL (≈ 7.49 µM)	2 µg/mL	–	1.6 µg/mL	15 µM	0.025 µg/mL	0.4 µg/mL	30 µM (≈ 12.5 µg/mL)	–	0.25 µg/mL	2 µg/mL	–	–	–
O=C1C(Cl)=C(N2C(=O)C(Cl)C2c2ccc(Cl)cc2)C(=O)c2ccccc21 (stereo not given)	6.25 µg/mL (≈ 15.4 µM)	–	6.25 µg/mL (≈ 15.4 µM)	–	30.8 µM	1.6 µg/mL	0.8 µg/mL	–	0.1 µg/mL	0.1 µg/mL	4 µg/mL	0.031 µg/mL	–	–
CN(C)c1ccc(C2C(Cl)C(=O)N2C2=C(Cl)C(=O)c3ccccc3C2=O)cc1 (stereo not given)	6.25 µg/mL (≈ 15.1 µM)	–	6.25 µg/mL (≈ 15.1 µM)	–	30.1 µM	1.6 µg/mL	–	–	3.2 µg/mL	4 µg/mL	1 µg/mL	16 µg/mL	–	MIC99.9 [17]: 1.6 µg/mL
O=C1C(Cl)=C(N2C(=O)C(Cl)C2c2ccccc2)C(=O)c2ccccc21 (stereo not given)	–	–	–	–	6.25 µg/mL	–	–	–	–	–	–	–	–	–
COc1ccc(C2C(Cl)C(=O)N2C2=C(Cl)C(=O)c3ccccc3C2=O)cc1 (stereo not given)	6.25 µg/mL (≈ 15.5 µM)	–	–	–	15.5 µM	0.4 µg/mL	–	31.1 µM (≈ 12.5 µg/mL)	–	1 µg/mL	–	16 µg/mL	–	MIC99.9 [1]: 0.125 µg/mL; MIC99.9 [18]: 1.6 µg/mL; MIC99.9 [8]: 0.4 µg/mL
O=C1C(Cl)=C(Cl)C(=O)c2ccccc21 [Dichlon]	–	32 µg/mL	–	3.2 µg/mL	55.1 µM	–	–	55.1 µM (≈ 12.5 µg/mL)	–	–	–	–	27.5 µM (≈ 6.25 µg/mL)	MIC99.9 [19]: 8 µg/mL; MIC99.9 [20]: 0.8 µg/mL; MIC99.9 [21]: 16 µg/mL; MIC99.9 [22]: 0.4 µg/mL
NNC(=O)c1ccncc1 [ISONIAZID]	–	–	–	–	93.9 µM	–	–	93.9 µM (≈ 12.9 µg/mL)	–	–	–	–	23.3 µM (≈ 3.2 µg/mL)	–
CO[C@H]1/C=C/O[C@@]2(C)Oc3c(C)c(O)c4c(O)c(c(/C=N/N5CCN(C)CC5)c(O)c4c3C2=O)NC(=O)/C(C)=C\C=C\[C@H](C)[C@H](O)[C@@H](C)[C@@H](O)[C@@H](C)[C@H](OC(C)=O)[C@@H]1C [RIFAMPIN]	–	–	–	–	77.8 µM	–	–	156 µM (≈ 128 µg/mL)	–	–	–	–	156 µM (≈ 128 µg/mL)	–
